“Also recorded” adds a separate entry of the source.
Experiments:
[1] = test system: mouse peritoneal mast cells; experiment: Peritoneal mast cell Fluo-4 calcium imaging, WT vs MrgprB2^MUT; type: cell-based; details: for activation / responsiveness of peritoneal mast cells, WT vs MrgprB2^MUT: Fluo-4 imaging, concentrations per FIG. 2A, 2E, 3A, 4C, 4E, 11 legends
Description: Adult male and female mice 2-5 months of age were sacrificed through CO2 inhalation. A total of 12 mls of ice cold mast cell dissociation media (MCDM; HBSS with 3% fetal bovine serum and 10 mM HEPES, pH 7.2) were used to make two sequential peritoneal lavages, which were combined and cells were spun down at 200 g. The pellet from each mouse was resuspended in 2 mls MCDM, layered over 4 mls of an isotonic 70% Percoll suspension (2.8 mls Percoll, 320 μls 10×HBSS, 40 μl 1 M HEPES, 830 μl MCDM), and spun down for 20 minutes, 500 g, 4° C. Mast cells were recovered in the pellet. Purity was >95%, as assayed by avidin staining and by morphology. Mast cells were resuspended at 5×10^5-1×10^6 cells/ml in DMEM with 10% fetal bovine serum and 25 ng/ml recombinant mouse stem cell factor (Sigma), and plated onto glass cover slips coated with 30 μg/ml fibronectin (Sigma). For counting, instead of plating, suspended mast cells were diluted 1/10 and affixed to slides by spinning at 1000 rpm for 5 minutes at 4° C. on a CytoSpin (Thermo Scientific).
For imaging, after two hours of incubation at 37° C., 5% CO2, mast cells were loaded with Fluo-4 along with 0.02% Pluronic F-127 for 30 minutes at room temperature, washed 3 times in CIB and used immediately for imaging. Cells were used within two hours of loading. Cells were identified as responding if the [Ca^2+]i rose by at least 50% for at least 10 seconds, which clearly distinguishes a ligand-induced response from random flickering events. Average traces were calculated by taking the average response from each cell in a mouse, and averaging those.

MrgprB2 = target: T1, MrgprB2 (Mus musculus, UniProt Q3KNA1); experiment: Calcium imaging / EC50 determination in HEK293 cells expressing MrgprB2 (MrgprB2-HEK); type: cell-based; details: HEK293 cells heterologously expressing MrgprB2
T1 construct: expressed in transfected cells
T1 sequence (Q3KNA1 1-338): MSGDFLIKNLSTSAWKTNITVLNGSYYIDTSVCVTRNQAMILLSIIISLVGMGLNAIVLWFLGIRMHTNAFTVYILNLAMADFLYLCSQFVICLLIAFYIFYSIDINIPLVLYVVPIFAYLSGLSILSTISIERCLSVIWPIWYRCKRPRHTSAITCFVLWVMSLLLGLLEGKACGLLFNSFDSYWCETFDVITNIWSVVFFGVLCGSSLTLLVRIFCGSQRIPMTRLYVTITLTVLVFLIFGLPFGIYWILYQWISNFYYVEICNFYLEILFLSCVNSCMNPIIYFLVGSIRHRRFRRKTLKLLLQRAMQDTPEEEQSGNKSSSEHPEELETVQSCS
Description: In initial screens, HEK293 cells (not tested for Mycoplasma but rapidly dividing) were transiently transfected with gene constructs including a C-terminal FLAG tag, and plated on 100 μg/ml poly-D-lysine coated glass cover slips six hours after transfection. […] Later experiments utilized cell lines stably expressing receptors along with transient or stable expression of the promiscuous G protein Gα15. […] Unless otherwise specified, drugs were perfused into the chamber for 45 to 60 seconds and responses were monitored at 5-second intervals for an additional 60-90 seconds.
HEK293 cells stably expressing Galpha15 and either MrgprB2 or MrgprX2 were plated at 4×10^4 cells per well in 96-well plates and incubated overnight. […] Cells were incubated at 37° C. for 60 minutes, and allowed to recover for 15 minutes at room temperature before imaging in a Flexstation 3 (Molecular Devices). Wells were imaged according to manufacturer's specifications for 120 seconds, with 50 μl of test substances at 3× concentration added 30 seconds after imaging began. Responses were determined by subtracting the minimum signal from the maximum signal. Substances were tested in duplicate wells, the signals were averaged, and EC50s were determined for each trial by normalizing to the peak response to the substance in that trial.

[2] = Drug preparation and storage observations; type: physicochemical
Description: Propranolol also was prepared fresh on the day of the experiment to minimize the chances of a loss in potency. All fluoroquinolones except levofloxacin were dissolved into CIB adjusted to pH 3.5. All other drugs were prepared as 100×-1000× aliquots and stored at −80° C. before thawing at 4° C. and diluting into calcium imaging buffer or saline.

LAD2 human mast cells = experiment: LAD2 degranulation assay (β-hexosaminidase release), with MrgprX2 siRNA knockdown; type: cell-based; details: for β-hexosaminidase release in MrgprX2 siRNA vs control siRNA cells: compound 48/80 0.1, mastoparan 5, icatibant 10, atracurium 25, ciprofloxacin 75 μg/ml
Description: LAD2 cells were sensitized for 20 hours with 0.5 μg/ml biotin-conjugated human IgE (Abbiotec). Cells were washed, resuspended in Hepes buffer (10 mM HEPES, 137 mM NaCl, 2.7 mM KCl, 0.38 mM Na2HPO4.7H2O, 5.6 mM glucose, 1.8 mM CaCl2.H2O, 1.3 mM MgSO4.7H2O, 0.4% BSA, pH 7.4) at 0.025×10^6 per well, and then stimulated with 0.1 μg/ml streptavidin (Life Technologies) or other agonists at the indicated concentrations for 30 minutes at 37° C./5% CO2. The β-hexosaminidase released into the supernatants and in cell lysates was quantified by hydrolysis of p-nitrophenyl N-acetyl-β-D-glucosamide (Sigma-Aldrich) in 0.1 M sodium citrate buffer (pH 4.5) for 90 minutes at 37° C. The percentage of β-hexosaminidase release was calculated as a percent of total content.
LAD2 cells were washed with medium, suspended at 0.5×10^6 cells per well, and transfected with 100 nm MrgprX2 siRNA and control siRNA in antibiotic-free StemPro medium using Lipofectamine 3000 (Life Technologies) according to the manufacturer's instruction at 37° C./5% CO2. At 48 hours, knockdown was confirmed by reverse-transcriptase PCR, and the cells were used for degranulation assays.

WT and MrgprB2^MUT mice = experiment: Hindpaw swelling and Evans Blue extravasation; type: in vivo, mouse
Description: Adult male mice up to 8 months of age were anesthetized with an i.p. injection of 50 mg/kg pentobarbital (Sigma). 15 minutes after induction of anesthesia, mice were injected i.v. with 50 μl of 12.5 mg/ml Evans Blue (Sigma) in saline. 5 minutes later, 5 μl of the test substance (or 7 μl of anti-IgE) was administered by intraplantar injection in one paw and saline was administered in the other paw. Paw thickness was measured by calipers immediately after injection. 15 minutes later (30 minutes after anti-IgE), paw thickness was measured again and mice were sacrificed by decapitation. Paw tissue was collected, dried for 24 hours at 50° C., and weighed. Evans Blue was extracted by a 24 hour incubation in formamide at 50° C., and the O.D. was read at 620 nm using a spectrophotometer. For studies using ketotifen, mice were injected i.p. with 25 μl of a 10 mg/ml solution of ketotifen at the same time as pentobarbital.

peritoneal mast cells = experiment: Mouse peritoneal mast cell histamine release assay; type: cell-based; details: WT vs MrgprB2^MUT peritoneal mast cells
Description: Mast cells were purified as with the calcium imaging assay and allowed to recover for 2 hours in DMEM with 10% FBS and 25 ng/ml mouse stem cell factor in a 37° C. incubator with 5% CO2. Cells were then spun down, resuspended in CIB, counted, and plated at 300 cells/well in 75 μl CIB in 96-well plates coated with 20 μg/ml fibronectin (Sigma). They were allowed to adhere to the substrate for 45 minutes at 37° C. in atmospheric conditions (i.e. CO2 levels were not adjusted) before assay. […] After 5 minutes, 40 μl of supernatant was aspirated, diluted with 40 μl CIB and frozen at −80° C. until histamine levels were determined. Anti-IgE treatment was similar, except that cells were incubated for 30 minutes at 37° C. after anti-IgE was added before aspiration of supernatant. Histamine content was determined by using an HTRF histamine assay kit (Cisbio Assays) according to the manufacturer's instructions.

## CC[C@H](C)[C@H](NC(=O)[C@H](CC(=O)O)NC(=O)[C@H](CC(C)C)NC(=O)[C@H](Cc1c[nH]cn1)NC(=O)[C@@H]1CSSC[C@H](N)C(=O)N[C@@H](CO)C(=O)N[C@H]2CSSC[C@H](NC(=O)[C@H](CCC(=O)O)NC(=O)[C@H](CCCCN)NC(=O)[C@H](CC(=O)O)NC(=O)[C@H](CCSC)NC(=O)[C@H](CC(C)C)NC(=O)[C@H](CO)NC(=O)[C@H](CO)NC2=O)C(=O)N[C@@H](C(C)C)C(=O)N[C@@H](Cc2ccc(O)cc2)C(=O)N[C@@H](Cc2ccccc2)C(=O)N1)C(=O)N[C@H](C(=O)N[C@@H](Cc1c[nH]c2ccccc12)C(=O)O)[C@@H](C)CC [endothelin]
[1]
  activation / responsiveness of peritoneal mast cells, WT vs MrgprB2^MUT: comparable
[1]; listed as Endothelin
  activation / responsiveness of peritoneal mast cells, WT vs MrgprB2^MUT: not significantly different

## CSCC[C@H](NC(=O)[C@H](CC(C)C)NC(=O)CNC(=O)[C@H](Cc1ccccc1)NC(=O)[C@H](Cc1ccccc1)NC(=O)[C@H](CCC(N)=O)NC(=O)[C@H](CCC(N)=O)NC(=O)[C@@H]1CCCN1C(=O)[C@H](CCCCN)NC(=O)[C@@H]1CCCN1C(=O)[C@@H](N)CCCNC(=N)N)C(N)=O [Substance P]
MrgprB2
  response of MrgprB2-HEK cells ([Ca2+]i): responded

## CCN(CC)CCCC(C)Nc1ccnc2cc(Cl)ccc12 (stereo not shown) [chloroquine]
MrgprB2
  response of MrgprB2-HEK cells ([Ca2+]i): no response

## COc1cc2c3cc1Oc1cc(ccc1O)C[C@@H]1c4c(cc(OC)c(O)c4Oc4ccc(cc4)C[C@@H]3N(C)CC2)CC[N+]1(C)C [tubocurarine]
[2]
  stability of potency of solutions: susceptible to oxidation and/or freeze-thaw effects

## streptavidin: stimulus for biotin-conjugated human IgE sensitized LAD2 cells
LAD2 human mast cells; 0.1 μg/ml streptavidin, biotin-conjugated human IgE sensitized LAD2 cells
  β-hexosaminidase release: 71.3±1.8 % release

## COc1cc2c(cc1OC)[C@@H](Cc1cc(OC)c(OC)c(OC)c1)[N+](C)(CCCOC(=O)CC/C=C/CCC(=O)OCCC[N+]1(C)CCc3cc(OC)c(OC)cc3[C@H]1Cc1cc(OC)c(OC)c(OC)c1)CC2 (stereo partly shown) [mivacurium]
[2]
  stability of potency of solutions: susceptible to oxidation and/or freeze-thaw effects

## NC(N)=NCCC[C@@H](N)C(=O)N[C@@H](CCCN=C(N)N)C(=O)N1CCC[C@H]1C(=O)N1C[C@H](O)C[C@H]1C(=O)NCC(=O)N[C@@H](Cc1cccs1)C(=O)N[C@@H](CO)C(=O)N1Cc2ccccc2C[C@@H]1C(=O)N1[C@H](C(=O)N[C@@H](CCCN=C(N)N)C(=O)O)C[C@@H]2CCCC[C@@H]21 [icatibant]
WT and MrgprB2^MUT mice; icatibant at the clinical concentration, intraplantar 10 mg/ml, 5 μl, 15 minutes
  hindpaw extravasation and swelling in WT mice but not in MrgprB2^MUT mice: induced extensive extravasation and swelling
WT and MrgprB2^MUT mice; icatibant intraplantar, no ketotifen pretreatment, n=4
  increase in paw thickness, without ketotifen: 40.7±2.1%
LAD2 human mast cells
  β-hexosaminidase release in MrgprX2 siRNA vs control siRNA cells: significantly reduced
Peritoneal mast cells
  histamine release from WT peritoneal mast cells (MrgprB2^MUT released substantially less): induced histamine release

## insulin: Recombinant human insulin from Roche, negative control
[1]
  activation / responsiveness of peritoneal mast cells, WT vs MrgprB2^MUT: had no effect; also recorded: not significant

## BAMS-22: MrgprX1 and MrgprC11 agonist Bovine Adrenal Medulla derived peptide, fragment 8-22 (VGRPEWWMDYQKRYG)
[1]; 500 nM, Fluo-4, p=0.39
  percentages of peritoneal mast cells responding, differences: not significant

## CN1CCC(=C2c3ccccc3CC(=O)c3sccc32)CC1 [ketotifen]
WT and MrgprB2^MUT mice; icatibant intraplantar after ketotifen i.p. pretreatment (25 μl of 10 mg/ml), n=4
  increase in paw thickness, with ketotifen: 3.1±0.6%

## cortistatin
[1]
  activation / responsiveness of peritoneal mast cells, WT vs MrgprB2^MUT: strongly activated WT but not MrgprB2^MUT mast cells

## CC[C@H](C)[C@H](N)C(=O)N[C@@H](CC(N)=O)C(=O)N[C@@H](CC(C)C)C(=O)N[C@@H](CCCCN)C(=O)N[C@@H](C)C(=O)N[C@@H](CC(C)C)C(=O)N[C@@H](C)C(=O)N[C@@H](C)C(=O)N[C@@H](CC(C)C)C(=O)N[C@@H](C)C(=O)N[C@@H](CCCCN)C(=O)N[C@@H](CCCCN)C(=O)N[C@H](C(=O)N[C@@H](CC(C)C)C(N)=O)[C@@H](C)CC [mastoparan]
LAD2 human mast cells
  β-hexosaminidase release in MrgprX2 siRNA vs control siRNA cells: significantly reduced
Peritoneal mast cells
  histamine release from WT peritoneal mast cells (MrgprB2^MUT released substantially less): induced histamine release

## CC(C)C[C@H](NC(=O)[C@H](C)NC(=O)[C@H](Cc1c[nH]c2ccccc12)NC(=O)[C@H](CCCCN)NC(=O)[C@H](CC(N)=O)NC(=O)[C@H](Cc1c[nH]c2ccccc12)NC(=O)[C@H](CCCCN)NC(=O)[C@H](CCCCN)NC(=O)[C@H](CCCNC(=N)N)NC(=O)[C@@H](N)Cc1ccccc1)C(=O)N[C@@H](CO)C(=O)N[C@@H](CCCNC(=N)N)C(N)=O [PAMP (9-20)]
[1]
  activation / responsiveness of peritoneal mast cells, WT vs MrgprB2^MUT: strongly activated WT but not MrgprB2^MUT mast cells
MrgprB2
  response of MrgprB2-HEK cells ([Ca2+]i): responded

## COc1ccc(CC2c3cc(OC)c(OC)cc3CC[N+]2(C)CCC(=O)OCCCCCOC(=O)CC[N+]2(C)CCc3cc(OC)c(OC)cc3C2Cc2ccc(OC)c(OC)c2)cc1OC (stereo not shown) [atracurium]
[2]
  stability of potency of solutions: susceptible to oxidation and/or freeze-thaw effects
LAD2 human mast cells
  β-hexosaminidase release in MrgprX2 siRNA vs control siRNA cells: significantly reduced
Peritoneal mast cells
  histamine release from WT peritoneal mast cells (MrgprB2^MUT released substantially less): induced histamine release

Source: patent publication US10696971B2, “MrgprX2/MrgprB2 expressing cell based assay to detect pseudo-allergic drug reactions and to identify blockers to prevent the adverse reactions” (The Johns Hopkins University, priority 2014, dated 2020)
